Results: patent US8426408B2, “Pyrimidine inhibitors of kinases” (AbbVie Inc., priority 2009, dated 2013)

How the values were obtained:
Aurora B = target: T1, Aurora B (Homo sapiens, UniProt Q96GD4); test: Aurora B enzyme inhibition (time-resolved fluorescence, histone H3 peptide); assay type: biochemical; conditions: 1 mM ATP
T1 construct: Active Aurora B enzyme (recombinant residues 1-344)
Summary of the method: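 Recombinant Aurora B (residues 1-344) with GST-INCENP phosphorylated biotinylated histone H3 (1-21) peptide at 1 mM ATP in HEPES pH 7.4 with MgCl2, orthovanadate and Triton X-100 for 1 h. After EDTA stop, the phosphopeptide was detected by TR-FRET (Eu-cryptate anti-phospho-H3 / SA-APC, 665/615 nm ratio). IC50 from an exponential fit.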

KDR [1] = target: T2, KDR (Homo sapiens, UniProt P35968); test: KDR HTRF in vitro kinase assay; assay type: biochemical; design: purified enzyme (His6-KDR 789-1354, MW 63 kD); His6 (N); conditions: 1 mM ATP; read-out: KDR enzyme inhibition data (Ki)
Summary of the method: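 His6-KDR 789-1354 (7 ng/well) with 0.5 μM biotinylated peptide substrate and 1 mM ATP in HEPES pH 7.1, MgCl2/MnCl2, 60 min at room temperature. EDTA-quenched, detected by streptavidin-XL-665 plus Eu-kryptate anti-phosphotyrosine HTRF after 3 h; IC50 from 620/665 nm ratio.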
Target sequence in this assay (P35968 789-1354): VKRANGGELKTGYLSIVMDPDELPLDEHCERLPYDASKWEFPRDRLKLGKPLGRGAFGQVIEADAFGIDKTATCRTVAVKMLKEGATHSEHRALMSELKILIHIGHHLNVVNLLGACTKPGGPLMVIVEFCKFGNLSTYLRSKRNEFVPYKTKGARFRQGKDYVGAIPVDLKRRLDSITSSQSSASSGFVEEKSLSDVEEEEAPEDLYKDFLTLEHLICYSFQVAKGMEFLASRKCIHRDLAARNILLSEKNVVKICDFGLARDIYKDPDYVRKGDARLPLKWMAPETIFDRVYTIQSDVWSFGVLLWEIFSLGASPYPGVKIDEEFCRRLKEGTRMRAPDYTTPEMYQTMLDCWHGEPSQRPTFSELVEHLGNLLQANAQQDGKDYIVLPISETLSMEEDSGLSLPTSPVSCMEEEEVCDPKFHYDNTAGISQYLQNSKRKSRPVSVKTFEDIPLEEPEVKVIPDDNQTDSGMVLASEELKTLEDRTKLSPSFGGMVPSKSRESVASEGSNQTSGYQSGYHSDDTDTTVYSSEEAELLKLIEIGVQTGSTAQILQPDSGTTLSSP

KDR [2] = target: T2, KDR; test: KDR cellular assay (KDR receptor phosphorylation ELISA); assay type: cell-based; design: expressed in transfected cells; host or cells: 3T3 (embryonic mouse) cells; conditions: KDR transfected 3T3 (embryonic mouse) cells, VEGF stimulated; read-out: IC50 inhibition of KDR phosphorylation
Summary of the method: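 KDR-transfected mouse 3T3 cells treated 20 min at 37° C with half-log compound dilutions, then stimulated 10 min with VEGF (100 ng/ml solution). Lysates captured on anti-KDR plates; phosphorylation by biotin antibody/streptavidin-HRP ELISA at 450 nm. IC50 by non-linear regression.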
Target sequence in this assay (P35968 20-1356): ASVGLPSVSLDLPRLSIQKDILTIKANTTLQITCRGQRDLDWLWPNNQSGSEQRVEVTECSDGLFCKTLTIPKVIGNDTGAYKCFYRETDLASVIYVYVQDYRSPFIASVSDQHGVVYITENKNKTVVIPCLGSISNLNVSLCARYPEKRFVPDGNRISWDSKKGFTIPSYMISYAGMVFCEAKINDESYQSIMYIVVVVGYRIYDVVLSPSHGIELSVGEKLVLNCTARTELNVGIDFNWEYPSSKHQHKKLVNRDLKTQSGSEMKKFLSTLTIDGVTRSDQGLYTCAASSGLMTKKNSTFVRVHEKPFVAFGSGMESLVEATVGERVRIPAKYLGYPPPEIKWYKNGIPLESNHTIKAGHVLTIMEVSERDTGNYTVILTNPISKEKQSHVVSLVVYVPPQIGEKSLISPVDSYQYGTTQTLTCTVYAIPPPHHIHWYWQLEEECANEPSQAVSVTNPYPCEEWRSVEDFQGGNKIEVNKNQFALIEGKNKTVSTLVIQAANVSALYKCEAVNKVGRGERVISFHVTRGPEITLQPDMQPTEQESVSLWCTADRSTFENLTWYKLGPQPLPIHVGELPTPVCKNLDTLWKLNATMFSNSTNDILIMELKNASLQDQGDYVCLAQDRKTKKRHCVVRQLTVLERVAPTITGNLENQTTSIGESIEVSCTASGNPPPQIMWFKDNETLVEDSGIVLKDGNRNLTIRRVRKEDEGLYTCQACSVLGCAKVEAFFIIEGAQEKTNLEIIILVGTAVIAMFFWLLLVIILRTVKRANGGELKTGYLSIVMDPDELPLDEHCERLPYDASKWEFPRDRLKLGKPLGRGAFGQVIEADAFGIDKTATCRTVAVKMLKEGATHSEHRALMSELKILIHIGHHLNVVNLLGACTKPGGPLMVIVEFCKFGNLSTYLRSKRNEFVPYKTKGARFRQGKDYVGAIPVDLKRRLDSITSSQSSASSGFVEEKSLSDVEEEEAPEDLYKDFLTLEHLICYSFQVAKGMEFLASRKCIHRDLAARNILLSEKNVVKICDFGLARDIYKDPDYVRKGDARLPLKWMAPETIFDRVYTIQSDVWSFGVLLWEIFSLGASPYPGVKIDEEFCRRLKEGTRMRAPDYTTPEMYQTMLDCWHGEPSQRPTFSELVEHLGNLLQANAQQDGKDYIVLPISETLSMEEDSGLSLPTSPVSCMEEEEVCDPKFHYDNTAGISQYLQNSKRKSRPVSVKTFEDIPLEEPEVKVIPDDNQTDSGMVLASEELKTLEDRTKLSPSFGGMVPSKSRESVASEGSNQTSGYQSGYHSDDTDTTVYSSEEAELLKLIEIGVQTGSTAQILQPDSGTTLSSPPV

T1 sequence (Q96GD4 whole entry, the tested form may be a part): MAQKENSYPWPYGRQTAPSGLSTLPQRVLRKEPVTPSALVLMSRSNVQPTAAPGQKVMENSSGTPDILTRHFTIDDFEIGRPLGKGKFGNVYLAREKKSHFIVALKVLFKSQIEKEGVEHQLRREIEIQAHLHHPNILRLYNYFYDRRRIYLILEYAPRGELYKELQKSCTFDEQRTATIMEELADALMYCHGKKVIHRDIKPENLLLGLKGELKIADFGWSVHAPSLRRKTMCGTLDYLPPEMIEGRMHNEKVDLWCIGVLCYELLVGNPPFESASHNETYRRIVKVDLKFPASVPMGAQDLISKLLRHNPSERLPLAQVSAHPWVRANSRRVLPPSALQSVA
T1 sequence (Q9NQS7 826-918 partner limits assumed): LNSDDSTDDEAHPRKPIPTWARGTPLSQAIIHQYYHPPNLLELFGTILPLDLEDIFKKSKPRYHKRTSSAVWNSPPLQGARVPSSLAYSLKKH

Ki (Aurora B) | Ki (KDR [1]) | IC50 (KDR [2]) | SMILES
< 0.1 µM | < 0.1 µM | < 0.1 µM | CCn1cc(Nc2ncc(Cl)c(N[C@H]3[C@@H](C(N)=O)[C@@H]4C=C[C@H]3C4)n2)cn1 (racemic) [Example 30, (1S,2S,3R,4R)-3-({5-chloro-2-[(1-ethyl-1H-pyrazol-4-yl)amino]pyrimidin-4-yl}amino)bicyclo[2.2.1]hept-5-ene-2-carboxamide and (1R,2R,3S,4S)-3-({5-chloro-2-[(1-ethyl-1H-pyrazol-4-yl)amino]pyrimidin-4-yl}amino)bicyclo[2.2.1]hept-5-ene-2-carboxamide]
< 0.1 µM | < 0.1 µM | < 0.1 µM | CN1CCN(CCn2cc(Nc3ncc(Cl)c(N[C@H]4[C@@H](C(N)=O)[C@@H]5C=C[C@H]4C5)n3)cn2)CC1 [Example 91, (1S,2S,3R,4R)-3-{[5-chloro-2-({1-[2-(4-methylpiperazin-1-yl)ethyl]-1H-pyrazol-4-yl}amino)pyrimidin-4-yl]amino}bicyclo[2.2.1]hept-5-ene-2-carboxamide]
< 0.1 µM | < 0.1 µM | < 0.1 µM | CN1CCC(Cn2cc(Nc3ncc(Cl)c(N[C@H]4[C@@H](C(N)=O)[C@@H]5C=C[C@H]4C5)n3)cn2)CC1 [Example 97, (1S,2S,3R,4R)-3-{[5-chloro-2-({1-[(1-methylpiperidin-4-yl)methyl]-1H-pyrazol-4-yl}amino)pyrimidin-4-yl]amino}bicyclo[2.2.1]hept-5-ene-2-carboxamide]
< 0.1 µM | < 0.1 µM | < 0.1 µM | CC(C)n1cc(Nc2ncc(Cl)c(N[C@H]3[C@@H](C(N)=O)[C@@H]4C=C[C@H]3C4)n2)cn1 [Example 98, (1S,2S,3R,4R)-3-({5-chloro-2-[(1-isopropyl-1H-pyrazol-4-yl)amino]pyrimidin-4-yl}amino)bicyclo[2.2.1]hept-5-ene-2-carboxamide]
< 0.1 µM | < 0.1 µM | < 0.1 µM | CC(C)CCn1cc(Nc2ncc(Cl)c(N[C@H]3[C@@H](C(N)=O)[C@@H]4C=C[C@H]3C4)n2)cn1 [Example 99, (1S,2S,3R,4R)-3-[(5-chloro-2-[1-(3-methylbutyl)-1H-pyrazol-4-yl]aminopyrimidin-4-yl)amino]bicyclo[2.2.1]hept-5-ene-2-carboxamide]
< 0.1 µM | < 0.1 µM | < 0.1 µM | COCCOCCn1cc(Nc2ncc(Cl)c(N[C@H]3[C@@H](C(N)=O)[C@@H]4C=C[C@H]3C4)n2)cn1 [Example 100, (1S,2S,3R,4R)-3-{[5-chloro-2-({1-[2-(2-methoxyethoxy)ethyl]-1H-pyrazol-4-yl}amino)pyrimidin-4-yl]amino}bicyclo[2.2.1]hept-5-ene-2-carboxamide]
< 0.1 µM | < 0.1 µM | < 0.1 µM | NC(=O)[C@@H]1[C@H](Nc2nc(Nc3cnn(C[C@H]4CCCN4)c3)ncc2Cl)[C@H]2C=C[C@@H]1C2 [Example 102, (1S,2S,3R,4R)-3-{[5-chloro-2-({1-[(2R)-pyrrolidin-2-ylmethyl]-1H-pyrazol-4-yl}amino)pyrimidin-4-yl]amino}bicyclo[2.2.1]hept-5-ene-2-carboxamide]
< 0.1 µM | < 0.1 µM | 0.1 to 1 µM | NC(=O)[C@@H]1[C@H](Nc2nc(Nc3cnn(CC(=O)O)c3)ncc2Cl)[C@H]2C=C[C@@H]1C2 [Example 103, {4-[(4-{[(1R,2R,3S,4S)-3-carbamoylbicyclo[2.2.1]hept-5-ene-2-yl]amino}-5-chloropyrimidin-2-yl)amino]-1H-pyrazol-1-yl}acetic acid]
< 0.1 µM | < 0.1 µM | < 0.1 µM | C[C@@H](O)Cn1cc(Nc2ncc(Cl)c(N[C@H]3[C@@H](C(N)=O)[C@@H]4C=C[C@H]3C4)n2)cn1 [Example 105, (1S,2S,3R,4R)-3-{[5-chloro-2-({1-[(2R)-2-hydroxypropyl]-1H-pyrazol-4-yl}amino)pyrimidin-4-yl]amino}bicyclo[2.2.1]hept-5-ene-2-carboxamide]
< 0.1 µM | < 0.1 µM | < 0.1 µM | COCCn1cc(Nc2ncc(Br)c(N[C@H]3[C@@H](C(N)=O)[C@@H]4C=C[C@H]3C4)n2)cn1 [Example 106, (1S,2S,3R,4R)-3-[(5-bromo-2-{[1-(2-methoxyethyl)-1H-pyrazol-4-yl]amino}pyrimidin-4-yl)amino]bicyclo[2.2.1]hept-5-ene-2-carboxamide]
< 0.1 µM | < 0.1 µM | < 0.1 µM | NC(=O)[C@@H]1[C@H](Nc2nc(Nc3cnn([C@@H]4CCOC4)c3)ncc2Cl)[C@H]2C=C[C@@H]1C2 [Example 107, (1S,2S,3R,4R)-3-{[5-chloro-2-({1-[(3R)-tetrahydrofuran-3-yl]-1H-pyrazol-4-yl}amino)pyrimidin-4-yl]amino}bicyclo[2.2.1]hept-5-ene-2-carboxamide]
< 0.1 µM | < 0.1 µM | < 0.1 µM | NC(=O)[C@@H]1[C@H](Nc2nc(Nc3cnn([C@H]4CCOC4)c3)ncc2Cl)[C@H]2C=C[C@@H]1C2 [Example 108, (1S,2S,3R,4R)-3-{[5-chloro-2-({1-[(3S)-tetrahydrofuran-3-yl]-1H-pyrazol-4-yl}amino)pyrimidin-4-yl]amino}bicyclo[2.2.1]hept-5-ene-2-carboxamide]

More lines, now with the values behind:

SMILES | Ki (Aurora B) | Ki (KDR [1]) | IC50 (KDR [2])
CCn1cc(Nc2ncc(Cl)c(NC3C4CCC(O4)C3C(N)=O)n2)cn1 (racemic) [Example 142, (1S,2R,3S,4R)-3-({5-chloro-2-[(1-ethyl-1H-pyrazol-4-yl)amino]pyrimidin-4-yl}amino)-7-oxabicyclo[2.2.1]heptane-2-carboxamide and (1R,2S,3R,4S)-3-({5-chloro-2-[(1-ethyl-1H-pyrazol-4-yl)amino]pyrimidin-4-yl}amino)-7-oxabicyclo[2.2.1]heptane-2-carboxamide] | < 0.1 µM | < 0.1 µM | 0.1 to 1 µM
CC(C)NC(=O)C1CCCC1Nc1nc(Nc2cnn(C3CCNCC3)c2)ncc1Cl (racemic) [Example 163, (1S,2R)-2-[(5-chloro-2-{[1-(piperidin-4-yl)-1H-pyrazol-4-yl]amino}pyrimidin-4-yl)amino]-N-isopropylcyclopentanecarboxamide and (1R,2S)-2-[(5-chloro-2-{[1-(piperidin-4-yl)-1H-pyrazol-4-yl]amino}pyrimidin-4-yl)amino]-N-isopropylcyclopentanecarboxamide] | < 0.1 µM | 0.1 to 1 µM | 0.1 to 1 µM
CNC(=O)Cn1cc(Nc2ncc(Cl)c(N[C@@H]3[C@H]4CC[C@H](C4)[C@@H]3C(N)=O)n2)cn1 [Example 88, (1R,2S,3R,4S)-3-{[5-chloro-2-({1-[2-(methylamino)-2-oxoethyl]-1H-pyrazol-4-yl}amino)pyrimidin-4-yl]amino}bicyclo[2.2.1]heptane-2-carboxamide] | < 0.1 µM | < 0.1 µM | 0.1 to 1 µM
CN(C)CC(=O)N1CCC(n2cc(Nc3ncc(Cl)c(N[C@H]4[C@@H](C(N)=O)[C@@H]5C=C[C@H]4C5)n3)cn2)CC1 [Example 89, (1S,2S,3R,4R)-3-{[5-chloro-2-({1-[1-(N,N-dimethylglycyl)piperidin-4-yl]-1H-pyrazol-4-yl}amino)pyrimidin-4-yl]amino}bicyclo[2.2.1]hept-5-ene-2-carboxamide] | < 0.1 µM | < 0.1 µM | < 0.1 µM
CN1CCN(CCn2cc(Nc3ncc(Cl)c(N[C@@H]4[C@H]5CC[C@H](C5)[C@@H]4C(N)=O)n3)cn2)CC1 [Example 90, (1R,2S,3R,4S)-3-{[5-chloro-2-({1-[2-(4-methylpiperazin-1-yl)ethyl]-1H-pyrazol-4-yl}amino)pyrimidin-4-yl]amino}bicyclo[2.2.1]heptane-2-carboxamide] | < 0.1 µM | < 0.1 µM | < 0.1 µM
CC(=O)N1CCC(n2cc(Nc3ncc(Cl)c(N[C@H]4[C@@H](C(N)=O)[C@@H]5C=C[C@H]4C5)n3)cn2)CC1 [Example 92, (1S,2S,3R,4R)-3-[(2-{[1-(1-acetylpiperidin-4-yl)-1H-pyrazol-4-yl]amino}-5-chloropyrimidin-4-yl)amino]bicyclo[2.2.1]hept-5-ene-2-carboxamide] | < 0.1 µM | < 0.1 µM | 0.1 to 1 µM
NC(=O)[C@H]1[C@@H]2CC[C@@H](C2)[C@H]1Nc1nc(Nc2cnn(CCO)c2)ncc1Cl [Example 93, (1R,2S,3R,4S)-3-[(5-chloro-2-{[1-(2-hydroxyethyl)-1H-pyrazol-4-yl]amino}pyrimidin-4-yl)amino]bicyclo[2.2.1]heptane-2-carboxamide] | < 0.1 µM | < 0.1 µM | 0.1 to 1 µM
Cn1cc(Nc2ncc(Cl)c(Nc3ccccc3C3(O)CCC3)n2)cn1 [Example 101, 1-[2-({5-chloro-2-[(1-methyl-1H-pyrazol-4-yl)amino]pyrimidin-4-yl}amino)phenyl]cyclobutanol] | < 0.1 µM | < 0.1 µM | 0.1 to 1 µM
C[C@@H](O)Cn1cc(Nc2ncc(Cl)c(N[C@@H]3[C@H]4CC[C@H](C4)[C@@H]3C(N)=O)n2)cn1 [Example 104, (1R,2S,3R,4S)-3-{[5-chloro-2-({1-[(2R)-2-hydroxypropyl]-1H-pyrazol-4-yl}amino)pyrimidin-4-yl]amino}bicyclo[2.2.1]heptane-2-carboxamide] | < 0.1 µM | < 0.1 µM | 0.1 to 1 µM
